{
  "source": "paper PMC12598616",
  "about": "“Design and optimization of caspase-1-responsive fluorescent probes for pyroptosis imaging and anti-pyroptosis drug screening” (Chemical Science, 2025)",
  "key": {"[1]": {"tested_on": "puncture-induced IVDD rat model", "experiment": "In vivo fluorescence imaging of intervertebral disc degeneration", "design": "species or system Sprague-Dawley rat", "conditions": "intradiscal injection, 0, 1, 2, 4 weeks after puncture", "method": "and signals were collected from 530 to 610 nm.\nChondrocytes spheroid cultivation\nChondrocytes were isolated from articular cartilage and resuspended in 1mL DMEM/F12 medium containing 10 μM ITS-A. A total of […] were counted and transferred into centrifuge tubes. The cells were incubated in these tubes with half of the medium changed periodically.\nIntracellular imaging in chondrocytes and 3D cell spheroids\nThe chondrocytes or 3D cell spheroids were seeded in dishes and cultured overnight. Subsequently, the cells or spheroids were incubated with H2O2 for 30, 60 and 90 minutes. Afterward, the cells were further incubated in medium containing 5 μM FPy1 for 1 hour. Fluorescence imaging was then performed with an excitation of 514 nm, and signals were […]\nFlow cytometry assays in THP-1 cells\nThe flow cytometry assays were performed to evaluate the response of FPy1 in THP-1 cells. THP-1 cells were seeded in 6-well plates at a density of 10^5 cells per well and cultured overnight. […] The results were analyzed with using FlowJo […]\nFixed cells or tissue sections were washed with PBS, permeabilized with 0.2 % Triton X-100 (Sigma–Aldrich) for 20 minutes, and blocked with 5 % bovine serum albumin for 1 hour at 37 °C. […] Staining results were examined under a fluorescence microscope (Olympus, IX83-FV3000) and quantified using ImageJ (Bethesda, MD, V1.8.0, NIH). […]"}, "[2]": {"tested_on": "osteoarthritis mouse model (ACL transection)", "experiment": "In vivo fluorescence imaging of osteoarthritis", "design": "species or system C57BL/6J mouse", "conditions": "injected into joint cavity; 0, 7, 14, 21 days post-surgery", "method": "The decline in chondrocyte function plays a crucial role in the pathogenesis of OA. Inflammasome-mediated chondrocyte pyroptosis has been closely associated with matrix degradation and cartilage degeneration in OA.[38] To model OA in vitro, primary chondrocytes were stimulated with H2O2 (2 mM) for different durations, followed by staining with FPy1 (5 μM) and fluorescence imaging to monitor the progression of pyroptosis under oxidative stress. […] To better mimic the in vivo pathological features of OA, primary chondrocytes were also cultured as three-dimensional spheroids and stimulated with H2O2. […] Furthermore, we evaluated the capability of FPy1 to monitor pyroptosis progression at different stages of OA in a mouse model. […] The pathological manifestations in the corresponding tissues became more pronounced with longer modeling periods, consistent with the fluorescence imaging results obtained using FPy1. […]\nHarvested rat discs were fixed in 4 % buffered paraformaldehyde for 24 hours, decalcified in 10 % ethylenediaminetetraacetic acid (EDTA, Solarbio, E8030) solution for 1 month, embedded in paraffin, and sectioned at a thickness of 5 μm. […] Stained sections were evaluated by three independent raters, blinded to the research protocol, and measurements were averaged for statistical analysis. […]\nIn vivo fluorescence imaging of intervertebral disc degeneration […]"}},
  "data": [
    {"substance": "–FLTDG– [FPy1, RhoB donor, hNR quencher]", "values": [
      {"measurement": "in vivo fluorescence at puncture site", "setting": "[1]; Co5/6, Co6/7, Co7/8", "result": "significant enhancement of fluorescence at the corresponding areas"},
      {"measurement": "differentiation of IVDD stages by fluorescence intensity", "setting": "[1]", "result": "could significantly differentiate the four different stages of IVDD"},
      {"measurement": "in vivo fluorescence signals in knee joints", "setting": "[2]", "result": "gradually increasing as the modeling duration was extended"}
    ]}
  ]
}
